From US20260355325A1, “DIMER COMPOUNDS” (KESMALEA THERAPEUTICS LIMITED, priority 2023, published 2026)

Columns and labels:
[1] = system: 22RV-1, LNCaP, and VCaP cells; assay: AR CTG Assay (Cell Titer-Glo cell viability); assay type: cell-based; settings: Cell viability in cells at 24-hour timepoint (22RV-1, LNCaP, VCaP; line not stated)
Excerpt: (§1) 22RV-1, LNCaP, and VCaP cells were obtained from ATCC (ATCC, Manassas, VA). 22RV-1 and LNCaP cells were maintained in RPMI 1640 (Invitrogen™, Waltham, MA) supplemented with 10% FBS (AusGeneX, Molendinar, Australia) and 1% penicillin/streptomycin (Invitrogen™, Waltham, MA). VCaP cells were maintained in 1:1 ratio F-12(HAM) Nutrient mixture (AdvanCell Technology, Taichung city, Taiwan) and DMEM (Invitrogen™, Waltham, MA) supplemented with 10% FBS (AusGeneX, Molendinar, Australia) and 1% penicillin/streptomycin (Invitrogen™, Waltham, MA).
Compounds were dissolved in DMSO (10 mM), serially diluted from 10 mM to 1.5 nM, and pre-incubated for 2 hours. Exponentially growing cells were seeded at 8×10^3 cells per well of 384 well plate (Corning, New York #3570). Cells were treated with compound for 24 hours. Following treatment, Cell Titer-Glo® Detection reagent (Promega Corporation, Madison, WA) was added according to manufacturer's instructions, and signal read using BMG CLARIOstar plate reader (BMG Labtech, Ortenburg, Germany). Each data point was performed in duplicate for every experiment. A GI50 value was calculated from linear regression analysis of the plots.

[2] = target: T1, AR (Androgen Receptor) (Homo sapiens, UniProt P10275); assay: AR IFA Assay (androgen receptor degradation in LNCaP and VCaP cells); assay type: cell-based; settings: AR degradation in cells (LNCaP, VCaP) at 48-hour timepoint
T1 construct: immunofluorescence degradation readout (antibody D6F11), 48 h
T1 sequence (P10275 1-920): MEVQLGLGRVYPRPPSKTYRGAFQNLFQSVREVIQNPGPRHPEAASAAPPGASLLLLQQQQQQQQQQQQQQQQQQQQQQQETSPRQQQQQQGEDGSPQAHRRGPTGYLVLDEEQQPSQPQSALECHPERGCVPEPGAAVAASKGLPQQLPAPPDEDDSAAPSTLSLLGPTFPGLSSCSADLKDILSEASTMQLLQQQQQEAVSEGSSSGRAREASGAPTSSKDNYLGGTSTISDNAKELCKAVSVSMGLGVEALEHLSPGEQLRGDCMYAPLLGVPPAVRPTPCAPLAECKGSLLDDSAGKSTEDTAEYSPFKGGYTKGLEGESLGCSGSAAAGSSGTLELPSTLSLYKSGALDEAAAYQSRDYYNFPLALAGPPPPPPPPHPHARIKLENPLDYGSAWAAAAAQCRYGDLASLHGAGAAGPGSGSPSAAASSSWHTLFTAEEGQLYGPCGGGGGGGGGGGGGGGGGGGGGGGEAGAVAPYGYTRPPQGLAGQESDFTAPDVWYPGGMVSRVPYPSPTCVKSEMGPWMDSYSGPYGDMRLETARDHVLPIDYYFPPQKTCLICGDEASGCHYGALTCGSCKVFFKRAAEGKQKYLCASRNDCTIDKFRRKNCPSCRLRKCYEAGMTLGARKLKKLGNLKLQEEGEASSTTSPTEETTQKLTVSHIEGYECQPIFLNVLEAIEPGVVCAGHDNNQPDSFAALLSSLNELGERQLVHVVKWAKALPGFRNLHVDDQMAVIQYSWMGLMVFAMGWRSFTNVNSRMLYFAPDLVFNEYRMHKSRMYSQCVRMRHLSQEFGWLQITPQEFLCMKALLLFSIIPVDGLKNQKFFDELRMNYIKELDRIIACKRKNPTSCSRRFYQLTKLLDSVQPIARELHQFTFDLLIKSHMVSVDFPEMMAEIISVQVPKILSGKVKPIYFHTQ
Excerpt: The purpose of the AR Assays were to assess the binding affinity of the dimer to AR and subsequent protein degradation.
as §1, with “LNCaP,” for “22RV-1, LNCaP,”, “VA).” for “VA). 22RV-1 and”
Compounds were dissolved in DMSO (10 mM), serially diluted from 10 mM to 1.5 nM, and pre-incubated for 2 hours. Exponentially growing cells were seeded at 8×10^3 cells per well of 384 well plate (Corning, New York #356663). Cells were treated with compound for 48 hours. Following treatment, cells were fixed with 4% PFA (SolarBio Lifescience, Beijing, China) for 20 minutes, permeabilised in 100% ice-cold methanol (Merck, Darmstadt, Germany) for 10 minutes, and blocked with blocking buffer (LI-COR Biosciences Lincoln, NE) for 90 minutes. Cells were incubated with primary Androgen Receptor (D6F11) XP® Rabbit mAb antibody (CST #5153 Danvers, MA) at 1:1000 dilution overnight in blocking buffer (LI-COR, Lincoln, NE) at 4° C. Cells were washed in DPBS (Thermo Fisher Scientific, Waltham, MA) and incubated with secondary antibody AlexaFluor 488 goat anti rabbit (Invitrogen™ #A-11008 Waltham, MA) 1:1000 dilution, with Hoechst stain (Invitrogen™ Waltham, MA) 1:5000 dilution in blocking buffer (LI-COR Biosciences, Lincoln, NE) for 90 minutes. After final DPBS wash, 200 ul of DPBS was added to the cells, and signal read on Operetta (Revvity, Waltham, MA). Each data point was performed in duplicate for every experiment. A DC50 value was calculated from linear regression analysis of the plots.

SMILES | IC50 [1] | DC50 [2]
Cc1cc(C(=O)N(C)CCCOc2cccc3c2CN(C2CCC(=O)NC2=O)C3=O)ccc1B1O[C@H]2C[C@H]3C[C@H](C3(C)C)[C@@]2(CCCNc2ccc(C(=O)N[C@H]3CC[C@H](Oc4ccc(C#N)c(Cl)c4)CC3)cc2)O1 (mixture of isomers) [Example 23, 4-((3aR,4R,6R,7aS)-3a-(3-((4-((trans-4-(3-chloro-4-cyanophenoxy)cyclohexyl)carbamoyl)phenyl)amino)propyl)-5,5-dimethylhexahydro-4,6-methanobenzo[d][1,3,2]dioxaborol-2-yl)-N-(3-((2-(2,6-dioxopiperidin-3-yl)-1-oxoisoindolin-4-yl)oxy)propyl)-N,3-dimethylbenzamide] | > 10 µM | 0.1 to 0.5 µM
Cc1ccc(C(=O)N(C)CCCOc2cccc3c2CN(C2CCC(=O)NC2=O)C3=O)cc1B1O[C@H]2C[C@H]3C[C@H](C3(C)C)[C@@]2(CCCNc2ccc(C(=O)N[C@H]3CC[C@H](Oc4ccc(C#N)c(Cl)c4)CC3)cc2)O1 (mixture of isomers) [Example 24, 3-((3aR,4R,6R,7aS)-3a-(3-((4-((trans-4-(3-chloro-4-cyanophenoxy)cyclohexyl)carbamoyl)phenyl)amino)propyl)-5,5-dimethylhexahydro-4,6-methanobenzo[d][1,3,2]dioxaborol-2-yl)-N-(3-((2-(2,6-dioxopiperidin-3-yl)-1-oxoisoindolin-4-yl)oxy)propyl)-N,4-dimethylbenzamide] | > 10 µM | 0.1 to 0.5 µM
Cc1cc([C@@H](C(=O)N2C[C@H](O)C[C@H]2C(=O)NCc2ccc(Cl)cc2B2O[C@H]3C[C@H]4C[C@H](C4(C)C)[C@@]3(CCNc3ccc(C(=O)N[C@H]4CC[C@H](Oc5ccc(C#N)c(Cl)c5)CC4)cc3)O2)C(C)C)on1 (racemic) [Example 22, (2S,4R)—N-(4-chloro-2-((3aR,4R,6R,7aS)-3a-(2-((4-((trans-4-(3-chloro-4-cyanophenoxy)cyclohexyl)carbamoyl)phenyl)amino)ethyl)-5,5-dimethylhexahydro-4,6-methanobenzo[d][1,3,2]dioxaborol-2-yl)benzyl)-4-hydroxy-1-((S)-3-methyl-2-(3-methylisoxazol-5-yl)butanoyl)pyrrolidine-2-carboxamide] | > 10 µM | 0.1 to 0.5 µM
Cc1cc2c(cc1B1O[C@H]3C[C@H]4C[C@H](C4(C)C)[C@@]3(CCOc3ccc(N4C(=S)N(c5ccc(C#N)c(C(F)(F)F)c5)C(=O)C4(C)C)cc3)O1)CN(CCCOc1cccc3c1CN(C1CCC(=O)NC1=O)C3=O)C2=O (stereo partly drawn) [Example 21, 4-(3-(4-(2-((3aR,4R,6R,7aS)-2-(2-(3-((2-(2,6-dioxopiperidin-3-yl)-1-oxoisoindolin-4-yl)oxy)propyl)-6-methyl-1-oxoisoindolin-5-yl)-5,5-dimethyltetrahydro-4,6-methanobenzo[d][1,3,2]dioxaborol-3a(4H)-yl)ethoxy)phenyl)-4,4-dimethyl-5-oxo-2-thioxoimidazolidin-1-yl)-2-(trifluoromethyl)benzonitrile] | > 10 µM | 0.1 to 0.5 µM
